From patent US11548925B2, “CACNA1H-derived tumor antigen polypeptide and use thereof” (Genoimmune Therapeutics Co., Ltd., priority 2016, dated 2023)

What was measured:
CD8+ T cells [1] = experiment: ELISPOTs detection of IFN-γ secretion by peptide-specific CD8+ T cells; assay type: cell-based, human
Source text: In this example, a ELISPOTs detection kit (Cat. No.: 3420-4AST-10, MABTECH) was used to verify the activation of an immune response of CD8+ T cells by the peptides of the present invention.
Principle of the ELISPOTs detection method is as follows: CD8+ T cells can specifically recognize the complex of HLA-A0201 and a peptide. The population of T cells recognizing the complex of the peptide and HLA-A0201 is varying, depending on the peptide sequence. Since T2 cells express HLA-A0201, CD8+ T cells can specifically recognize the T2 cells loaded with a peptide. After specific recognition of the complex of HLA-A0201 and the peptide, peptide-specific CD8+ T cells can be activated again to secrete IFN-γ interferon. The IFN-γ interferon secreted by the activated CD8+ T cells can be captured by antibodies on the ELISPOTs plate. Finally, the enzyme-conjugated antibody that recognizes IFN-γ can degrade the substrate through the enzyme conjugated thereto and develop color, eventually producing spots. The number of spots represents the number of cells that are activated to secrete IFN-γ interferon.
The cultured cells from Example 3 were added, along with T2 cells loaded with the mutant peptide […] (SEQ ID NO: 2) of the present invention and the wild-type peptide […] (SEQ ID NO: 1), respectively, into ELISPOTs plates, and cultured for 20 h, and then a ELISPOTs detection was performed (see the kit instruction). Finally, the spots produced by the ELISPOTs detection were counted.
The peptide was determined to have immunogenicity when the number of spots of the tested peptide/the number of spots of an unrelated peptide>2; that is, if the number of spots caused by the tested peptide is more than twice than that of an unrelated peptide, the tested peptide is determined to have immunogenicity.

CD8+ T cells [2] = experiment: as above; assay type: cell-based, human; settings: ratio of spot numbers; >2 immunogenic

TLISSLMPI [tumor antigen peptide from CACNA1H mutation, position 1428 arginine to methionine]
Conclusion (immunogenicity) (CD8+ T cells [1]; ELISPOTs): immunogenic
Number of spots in the mutant peptide group (CD8+ T cells [1]; T cells activated by the listed peptide, T2 cells loaded with TLISSLMPI, 20 h): 306
Number of spots in the wild-type peptide group (CD8+ T cells [1]; T cells activated by the listed peptide, T2 cells loaded with TLISSLRPI, 20 h): 33
Fold (tested/wild-type) (CD8+ T cells [2]): 9.27
